Laboratory results taken from publication PMC4418667 (PLoS ONE, 2015).

target: T1, IKKβ (Homo sapiens, UniProt O14920); assay: biochemical
T1 construct: gene IKBKB
T1 sequence (O14920 1-756): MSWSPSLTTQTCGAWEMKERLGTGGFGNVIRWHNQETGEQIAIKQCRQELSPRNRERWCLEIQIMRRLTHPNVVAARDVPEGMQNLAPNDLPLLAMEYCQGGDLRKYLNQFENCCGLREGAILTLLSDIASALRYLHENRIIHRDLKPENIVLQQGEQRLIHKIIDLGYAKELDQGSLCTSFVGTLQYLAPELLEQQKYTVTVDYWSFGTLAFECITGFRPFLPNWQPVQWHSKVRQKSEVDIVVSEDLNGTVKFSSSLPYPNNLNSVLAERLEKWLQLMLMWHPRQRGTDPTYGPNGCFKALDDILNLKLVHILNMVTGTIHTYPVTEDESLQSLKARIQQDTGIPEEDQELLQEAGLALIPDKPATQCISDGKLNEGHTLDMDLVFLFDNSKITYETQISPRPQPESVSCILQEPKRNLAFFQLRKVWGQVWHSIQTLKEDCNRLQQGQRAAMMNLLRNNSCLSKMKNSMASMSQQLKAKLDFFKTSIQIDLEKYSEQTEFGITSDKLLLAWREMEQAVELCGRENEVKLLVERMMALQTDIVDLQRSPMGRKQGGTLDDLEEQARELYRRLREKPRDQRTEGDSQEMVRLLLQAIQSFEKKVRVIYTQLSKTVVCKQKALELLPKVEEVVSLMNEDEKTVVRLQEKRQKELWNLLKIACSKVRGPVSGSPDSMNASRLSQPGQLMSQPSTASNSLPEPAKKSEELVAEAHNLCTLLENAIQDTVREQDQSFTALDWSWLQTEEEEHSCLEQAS

SMILES | IC50
C[C@H]1[C@H](C)CC[C@]2(C(=O)O)CC[C@]3(C)C(=CC[C@@H]4[C@@]5(C)C[C@@H](O)[C@H](O)[C@@](C)(CO)[C@@H]5CC[C@]43C)[C@H]12 [AA, Asiatic Acid] | 95 µM
C[C@H]1[C@H](C)CC[C@]2(C(=O)O)CC[C@]3(C)C(=CC[C@@H]4[C@@]5(C)C[C@@H](O)[C@H](O)C(C)(C)[C@@H]5CC[C@]43C)[C@H]12 [CA, Corosolic Acid] | 89.3 µM
C[C@H]1[C@H](C)CC[C@]2(C(=O)O)CC[C@]3(C)C(=CC[C@@H]4[C@@]5(C)CC[C@H](O)C(C)(C)[C@@H]5CC[C@]43C)[C@H]12 [UA, Ursolic Acid] | 69 µM
